Reference: ChEMBL document CHEMBL1143651, “Design and synthesis of 6-anilinoindazoles as selective inhibitors of c-Jun N-terminal kinase-3” (Bioorg Med Chem Lett, 2005)

How the values were obtained:
[1] = target: Mitogen-activated protein kinase 10 (Homo sapiens, UniProt P53779); test: Inhibitory concentration against c-Jun N-terminal kinase 3
[2] = target: Mitogen-activated protein kinase 14 (Homo sapiens, UniProt Q16539); test: Inhibitory concentration against Mitogen-activated protein kinase p38 alpha
Sequence of Mitogen-activated protein kinase 14 (Q16539 whole entry): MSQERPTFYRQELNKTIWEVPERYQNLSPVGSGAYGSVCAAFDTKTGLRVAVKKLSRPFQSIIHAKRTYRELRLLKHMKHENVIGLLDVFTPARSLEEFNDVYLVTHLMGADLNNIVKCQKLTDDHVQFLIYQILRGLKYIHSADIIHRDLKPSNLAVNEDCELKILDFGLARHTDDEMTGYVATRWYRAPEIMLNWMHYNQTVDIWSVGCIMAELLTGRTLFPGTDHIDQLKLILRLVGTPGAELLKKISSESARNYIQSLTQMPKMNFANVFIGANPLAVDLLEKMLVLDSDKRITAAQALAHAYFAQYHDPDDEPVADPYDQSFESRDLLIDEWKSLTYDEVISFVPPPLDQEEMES

[3] = target: Mitogen-activated protein kinase 8 (Homo sapiens, UniProt P45983); test: Inhibitory concentration against c-Jun N-terminal kinase 1
Sequence of Mitogen-activated protein kinase 8 (P45983 whole entry): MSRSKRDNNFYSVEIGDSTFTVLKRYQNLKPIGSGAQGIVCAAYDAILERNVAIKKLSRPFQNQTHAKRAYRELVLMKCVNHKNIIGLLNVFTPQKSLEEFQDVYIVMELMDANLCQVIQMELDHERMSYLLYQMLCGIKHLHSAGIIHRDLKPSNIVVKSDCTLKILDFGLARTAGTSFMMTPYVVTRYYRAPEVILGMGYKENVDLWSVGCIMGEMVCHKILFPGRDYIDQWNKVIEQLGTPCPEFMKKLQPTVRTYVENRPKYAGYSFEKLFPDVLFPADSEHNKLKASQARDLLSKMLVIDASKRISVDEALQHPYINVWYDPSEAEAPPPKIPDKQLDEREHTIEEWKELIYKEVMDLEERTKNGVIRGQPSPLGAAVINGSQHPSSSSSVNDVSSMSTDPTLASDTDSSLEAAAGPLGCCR

Sequence of Mitogen-activated protein kinase 10 (P53779 whole entry): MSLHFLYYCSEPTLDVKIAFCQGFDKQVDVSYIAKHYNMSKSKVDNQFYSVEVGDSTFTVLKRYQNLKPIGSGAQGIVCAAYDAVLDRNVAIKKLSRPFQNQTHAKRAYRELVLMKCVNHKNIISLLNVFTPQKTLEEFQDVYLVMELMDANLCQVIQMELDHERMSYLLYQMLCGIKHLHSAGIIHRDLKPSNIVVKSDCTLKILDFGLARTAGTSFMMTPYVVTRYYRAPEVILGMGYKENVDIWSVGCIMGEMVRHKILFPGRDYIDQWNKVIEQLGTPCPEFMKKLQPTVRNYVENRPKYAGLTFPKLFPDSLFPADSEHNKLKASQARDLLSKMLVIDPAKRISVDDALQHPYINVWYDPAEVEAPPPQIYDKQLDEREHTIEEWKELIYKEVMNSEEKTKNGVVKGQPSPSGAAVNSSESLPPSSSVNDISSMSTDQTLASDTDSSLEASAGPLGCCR

| Structure (SMILES) | IC50 [1] [nM] | IC50 [2] [nM] | IC50 [3] [nM] |
| --- | --- | --- | --- |
| COc1ccccc1Nc1ccc2c(-c3ccccc3)n[nH]c2c1 | 202 | 46 | 1600 |
| O=C(O)c1ccc(-c2n[nH]c3cc(Nc4ccccc4Cl)ccc23)cc1 | 32 | 13 | 246 |
| O=C(NCCCN1CCOCC1)c1cccc(-c2n[nH]c3cc(Nc4ccccc4Cl)ccc23)c1 | 3.4 | 3.7 | 228 |
| Clc1ccccc1Nc1ccc2c(-c3ccccc3)n[nH]c2c1 | 30 | 18 | 5350 |
| CN(C)CCNC(=O)c1ccc(-c2n[nH]c3cc(Nc4ccccc4Cl)ccc23)cc1 | 1.9 | 8.7 | 45 |
| NC(=O)c1cccc(-c2n[nH]c3cc(Nc4ccccc4Cl)ccc23)c1 | 3.3 | 3.2 | 81 |
| O=C(NC1CCNCC1)c1cccc(-c2n[nH]c3cc(Nc4ccccc4Cl)ccc23)c1 | 1.4 | 4.4 | 71 |
| c1ccc(Nc2ccc3c(-c4ccccc4)n[nH]c3c2)cc1 | 48 | 30 | > 10000 |
| O=C(O)c1cccc(-c2n[nH]c3cc(Nc4ccccc4Cl)ccc23)c1 | 5.3 | 24 | 61 |
| CN(C)CCNC(=O)c1cccc(-c2n[nH]c3cc(Nc4ccccc4Cl)ccc23)c1 | 21 | 16 | 698 |
